Results as given in patent US11045464B2, “Parenteral formulations of dopamine agonists” (VeroScience LLC, priority 2007, dated 2021).

Assay: Stability of SKF-38393 in solution
Type: physicochemical
Source text: Formulation 22S was a combination of […], employing the 11S base formulation with the two active agents. […] A short study has been run to ensure the stability of SKF-38393. […] In contrast, in alcohol solution, the API decomposes rapidly, with >5% of the API already lost within the first hour.

## Oc1cc2c(cc1O)C(c1ccccc1)CNCC2 (centres unmarked) [SKF-38393]
In alcohol solution, within the first hour
  API lost (decomposition): > 5%
In water buffered by the acidic acid, within 12 h
  decomposition of SKF-38393: no decomposition
